Test results published in PubChem BioAssay AID1645866 (Buhrlage Lab, Dana-Farber Cancer Institute and Novartis …, 2021).
Activity calls are given as the source filed them.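 Rule for the calls: active = in confirmatory dose-response testing, peak deubiquitinase inhibition of 30% or more; inactive = the rest.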

target: Ubiquitin carboxyl-terminal hydrolase 28 (Homo sapiens) (UniProt Q96RU2); experiment: Ubiquitin-specific peptidase 28 DUB inhibitors, biochemical concentration-dependence assay, validation of primary screening hits (AID 1645866); settings: purified USP28, ubiquitin-rhodamine fluorescence, 30 min
Sequence (Q96RU2 whole entry, looked up): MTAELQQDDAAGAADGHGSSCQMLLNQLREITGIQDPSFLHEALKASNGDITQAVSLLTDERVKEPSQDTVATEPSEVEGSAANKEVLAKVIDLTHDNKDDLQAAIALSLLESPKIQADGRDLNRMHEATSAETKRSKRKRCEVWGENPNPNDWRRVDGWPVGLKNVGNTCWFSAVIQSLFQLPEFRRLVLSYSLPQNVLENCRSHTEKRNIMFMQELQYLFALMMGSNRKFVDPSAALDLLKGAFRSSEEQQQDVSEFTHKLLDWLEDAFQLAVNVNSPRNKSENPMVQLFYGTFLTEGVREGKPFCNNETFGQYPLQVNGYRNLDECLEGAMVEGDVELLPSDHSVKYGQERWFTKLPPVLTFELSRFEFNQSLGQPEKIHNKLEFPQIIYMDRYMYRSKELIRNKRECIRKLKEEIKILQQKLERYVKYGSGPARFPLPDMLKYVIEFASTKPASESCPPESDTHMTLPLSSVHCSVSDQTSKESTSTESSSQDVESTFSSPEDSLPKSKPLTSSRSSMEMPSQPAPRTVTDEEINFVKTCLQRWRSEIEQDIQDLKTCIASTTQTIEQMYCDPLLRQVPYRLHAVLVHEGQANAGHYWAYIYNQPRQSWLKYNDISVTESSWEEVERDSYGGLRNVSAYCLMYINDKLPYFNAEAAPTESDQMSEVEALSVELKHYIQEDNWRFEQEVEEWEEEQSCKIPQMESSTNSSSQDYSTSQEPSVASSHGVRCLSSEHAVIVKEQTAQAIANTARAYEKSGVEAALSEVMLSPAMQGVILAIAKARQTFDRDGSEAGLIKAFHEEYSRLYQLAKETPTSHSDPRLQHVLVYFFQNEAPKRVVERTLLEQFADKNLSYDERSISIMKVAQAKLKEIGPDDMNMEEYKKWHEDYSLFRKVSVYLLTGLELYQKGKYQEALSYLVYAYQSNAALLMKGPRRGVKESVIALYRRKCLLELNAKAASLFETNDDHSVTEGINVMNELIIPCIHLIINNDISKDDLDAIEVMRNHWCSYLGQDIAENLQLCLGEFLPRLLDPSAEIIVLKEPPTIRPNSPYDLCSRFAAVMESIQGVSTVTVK

Row | SMILES | IC50
1 | CC1(C)CC2CC(C)(CN2Cc2c(O)ccc3ccccc23)C1 (stereo unspecified) | > 50 µM (inactive)
2 | O=C(Nc1ccc2c(c1)OCCO2)Nc1nnc(CC(=O)N2CCCCC2)s1 | 20.5 µM
3 | O=C1N(Cc2cccc(Cl)c2)CCN1c1ccc2c(c1)CCC2 | 18.2 µM
4 | Cc1noc(-c2cccn(Cc3cccc(C(F)(F)F)c3)c2=O)n1 | 8.11 µM
5 | Nc1c(C(=O)NCCc2ccccc2)nnn1-c1ccc(F)cc1 | 42.5 µM
6 | O=C1CC(c2cc3c(cc2Br)OCO3)c2cc3c(cc2N1)OCCO3 (stereo unspecified) | 14.9 µM
7 | CCc1nc(-c2cc(C(=O)N3CCOCC3)c3ccccn23)cs1 | > 50 µM (inactive)
8 | Cc1ccccc1Cc1nc(-c2ccc(=O)[nH]c2)no1 | 0.946 µM
9 | O=C(CCn1c(=O)c2ccccc2n(Cc2cc(=O)n3ccccc3n2)c1=O)NCCc1ccc(Cl)cc1 | 19.4 µM
10 | COc1cccc(-c2nc3cnccn3c2NCc2ccc3c(c2)OCO3)c1 | > 50 µM (inactive)
11 | CCc1noc(Cn2cnc3c4ccccc4n(CC(=O)NC4CCCCC4)c3c2=O)n1 | 40 µM
12 | Cc1ccc(C(=O)NCc2ccc(C(=O)Nc3ccc(C)c(C)c3)o2)cc1 | 28.2 µM
13 | COc1ccc(NC(=O)CSc2nc(N)c3c4c(sc3n2)COC(C)(C)C4)cc1 | 45.9 µM
14 | COc1ccc(/C=C/c2ccnc3nc(-n4cccc4)nn23)cc1 | > 50 µM (inactive)
15 | Cn1c(=O)c2c(ncn2CC(=O)NC2CCCc3ccccc32)n(C)c1=O (stereo unspecified) | > 50 µM (inactive)
16 | Cc1cc(N2CCOCC2)nc2ccc(NC(=O)CCC(=O)Nc3ccc(F)cc3)cc12 | 19.7 µM
17 | O=C(O)c1ccc(C2Cc3c([nH]c(=O)[nH]c3=O)O2)cc1 (stereo unspecified) | 6.53 µM
18 | NC(=O)CCC(=O)N[C@H]1C[C@H]2CN(Cc3ccccc3)c3ccccc3CN2C1 | > 50 µM (inactive)
19 | Cc1ccc(Cc2nc(-c3ccc(=O)[nH]c3)no2)cc1 | 0.423 µM
20 | N#Cc1ccccc1Cn1c(=O)n(CCCCC(=O)NCc2ccco2)c(=O)c2ccccc21 | 36.6 µM
21 | COc1cccc(CNC(=O)c2ccc(CSc3nc4ccncc4n3Cc3ccccc3F)cc2)c1 | 27.4 µM
22 | CC[C@H](C)C[C@H]1CC[C@](O)([C@](C)(O)C(=O)N[C@@H]2C(=O)N3NCCC[C@@H]3C(=O)N(O)[C@@H](C)C(=O)NCC(=O)N3NCCC[C@H]3C(=O)N(O)[C@H](C)C(=O)O[C@H]2C(C)C)O[C@@H]1C | 1.52 µM
23 | COc1cc(OC)cc(-n2c(=O)c3sccc3n(CC(=O)Nc3ccc(C)cc3)c2=O)c1 | 6.98 µM
24 | O=C(Nc1ccc(F)cc1F)c1csc(-c2ccccc2)n1 | 24.4 µM
25 | c1ccc(-n2nnc(-c3noc(-c4ccccn4)n3)c2-c2ccncc2)cc1 | 23.9 µM
26 | COc1cc(/C=C/C(=O)OCC(=O)Nc2ccc([N+](=O)[O-])cc2OC)ccc1O | 18.8 µM

Row | SMILES | IC50
27 | O=C(Nc1ccc2c(c1)OCO2)C1CCN(Cc2nc3ccccc3s2)CC1 | 2.4 µM
28 | Cc1ccc(C2c3cccn3CCN2C(=O)Nc2ccccc2)cc1 (stereo unspecified) | > 50 µM (inactive)
29 | O=C(COc1cccc2c1CCN(Cc1cccnc1)C2=O)Nc1ccc2c(c1)OCCO2 | 1.34 µM
30 | O=C(Nc1cccc2ccccc12)N1CCC(c2nc3c(nnn3Cc3ccc(F)cc3)c(=O)[nH]2)CC1 | 36.1 µM
31 | Fc1cccc(Cn2cc(-c3noc(-c4ccncc4)n3)nn2)c1 | 24.9 µM
32 | O=C(CNC(=O)OCc1ccccc1)Nc1ccc(Br)cc1C(=O)c1ccccc1Cl | 11.3 µM
33 | O=C(NCc1ccc(-c2nc3cnccc3o2)cc1)c1ccccc1F | 15.3 µM
34 | O=C(NCCCN1CCc2ccccc2C1)c1cc2c(s1)CS(=O)(=O)C2 | > 50 µM (inactive)
35 | O=C(OCc1ccc(Br)cc1)c1ccc2ccccc2n1 | 1 µM
36 | COc1ccc(-n2ccn3c(CCC(=O)NCc4ccc(F)cc4)nnc3c2=O)cc1 | 25.3 µM
37 | COc1ccc2nc3c(cc2c1)c(=O)n(C)c1c3c(=O)n(-c2ccccc2)c(=O)n1-c1ccccc1 | > 50 µM (inactive)
38 | Cc1ccc(-c2nc(NC(=O)Nc3ccc(Cl)cc3)sc2C)cc1 | 32.9 µM
39 | CCOC(=O)C1CCN(C(=O)c2ccc3c(c2)NC(=O)C2CCCN32)CC1 (stereo unspecified) | > 50 µM (inactive)
40 | CN1C(=O)c2cc(NC(=O)c3ccccc3Cl)ccc2Oc2ccccc21 | 1.25 µM
41 | CC1CCc2c(sc3nc(CC#N)[nH]c(=O)c23)C1 (stereo unspecified) | > 50 µM (inactive)
42 | COc1ccc(-c2nc(Cn3nnc(C(=O)Nc4ccc(C)c(C)c4)c3N)c(C)o2)cc1 | 2.12 µM
43 | CCc1ccccc1NC(=O)c1cc(-c2ccccn2)n[nH]1 | 46.1 µM
44 | CCOc1ccc(S(=O)(=O)Nc2ccc[nH]c2=O)cc1 | > 50 µM (inactive)
45 | O=C(OCc1cccc(Cl)c1)c1ccc2ccccc2n1 | 0.36 µM
46 | Cc1nc2ccccn2c1C1(O)C(=O)Nc2c(Cl)cc(Cl)cc21 (stereo unspecified) | > 50 µM (inactive)
47 | Cc1cccc(NC(=O)Nc2nnc(CC(=O)NCc3ccccc3)s2)c1 | 11.3 µM
48 | Cc1cc(O)cc2cc3c(c(O)c12)C(=O)CCC3O (stereo unspecified) | > 50 µM (inactive)
49 | Cc1cc2nc(/C=C/c3ccccc3)n(Cc3cccc(F)c3)c2cc1C | 4.94 µM
50 | O=C(CSc1nc2cc(C(F)(F)F)ccc2s1)NCC(=O)c1ccccc1 | 6.5 µM
51 | O=C(Nc1ccc2c(c1)OCCO2)C1CCN(C(=O)c2ccccc2)CC1 | 9.44 µM
52 | CS(=O)(=O)N1CCCN(c2nc3cc(Cl)ccc3n3cccc23)CC1 | > 50 µM (inactive)

Row | SMILES | IC50
53 | Cc1cc(C(=O)Nc2ccc3c(c2)OCCO3)no1 | 9.47 µM
54 | O=C1CC(C(=O)Nc2ccccc2F)n2nc(-c3ccccc3)cc2N1 (stereo unspecified) | 21.9 µM
55 | O=C(NCc1ccc2c(c1)OCO2)c1nc(-c2ccccc2)n(-c2ccccc2)n1 | > 50 µM (inactive)
56 | FC(F)(F)c1ccccc1CCN1CCc2nc3ccc(Cl)cc3cc2C1 | > 50 µM (inactive)
57 | Cc1nn(Cc2ccccc2)c(C)c1C(=O)NC1CCCc2ccccc21 (stereo unspecified) | 5.14 µM
58 | O=C(Nc1cccc(-c2noc(C3CCC3)n2)c1)C1CC(=O)N(c2ccccc2)C1 (stereo unspecified) | 18.8 µM
59 | Cc1c(C)n(-c2ccccc2)c2ncn(CC(=O)N(C)Cc3ccccc3)c(=O)c12 | > 50 µM (inactive)
60 | O=C(Nc1nc2c(ccc3ccccc32)s1)c1cccc(Br)c1 | 9.32 µM
61 | O=C(C1CCCN(S(=O)(=O)N2CCCCCC2)C1)N1CCN(c2ccccc2)CC1 (stereo unspecified) | > 50 µM (inactive)
62 | O=C(CCCCn1c(=O)[nH]c2ccccc2c1=O)Nc1cccc(Cl)c1 | 16.7 µM
63 | O=C(NCc1ccccc1)c1ccc(-c2ccc(N3CCCC3)nn2)cc1 | > 50 µM (inactive)
64 | COc1cc(OC)cc(-n2c(=O)c3sccc3n(CC(=O)c3ccc(F)cc3)c2=O)c1 | 28 µM
65 | O=C(CSc1ncnc2c1oc1ccccc12)NC1CCCC1 | 20.5 µM
66 | O=c1c2cnc(N3CCOCC3)nc2ccn1CCc1ccccc1 | 15.2 µM
67 | CC1(C)CC(n2[nH]c(=O)c3c2NC(=O)CSC3c2ccc(OCc3ccccc3)cc2)CCO1 (stereo unspecified) | 17.7 µM
68 | CN(C)S(=O)(=O)N1CCCC2(C1)Nc1cccnc1NC2=NC1CCCC1 (stereo unspecified) | > 50 µM (inactive)
69 | O=C(NC1(O)C(=O)c2ccccc2C1=O)c1cccc2c1-c1ccccc1C2=O | 32.6 µM
70 | O=C(Nc1ccc(Oc2cccc3cccnc23)cc1)c1cccs1 | 0.531 µM
71 | Cc1c(-c2nsc(NC(=O)c3ccc(Cl)cc3)n2)nnn1-c1ccccc1F | 5.34 µM
72 | CCCc1nc2c(sc3nc4c(cc32)COC(C)(C)C4)c(=O)n1CC(=O)Nc1ccccc1C | 21.9 µM
73 | O=C(Nc1cccc2ccccc12)C1CCCN(S(=O)(=O)Cc2ccccc2)C1 (stereo unspecified) | 18.8 µM
74 | Cc1nc(Nc2c3ccccc3nc3ccccc23)sc1C | > 50 µM (inactive)
75 | COC(=O)C1C(c2ccc(Cl)cc2Cl)C2(C(=O)c3ccccc3C2=O)C2C=Cc3ccccc3N12 (stereo unspecified) | > 50 µM (inactive)
76 | c1cnc(-c2n[nH]c(C3CCN(C4CCNC4)CC3)n2)cn1 (stereo unspecified) | > 50 µM (inactive)
77 | COc1ccc(CNC(=O)Nc2cccc3ccccc23)cc1 | 9.99 µM
78 | CCn1c(CN2CCCC(c3nc(-c4cccnc4)n[nH]3)C2)nc2ccccc21 (stereo unspecified) | 3.13 µM

Row | SMILES | IC50
79 | O=C1N(Cc2ccc(F)cc2)CCN1c1ccc(C(F)(F)F)cn1 | 4.67 µM
80 | CC1CC(=O)c2c(cc3c(-c4c(O)cc(O)c5c(O)c6c(cc45)OC(C)CC6=O)c(O)cc(O)c3c2O)O1 (stereo unspecified) | 20.8 µM
81 | CC1CCCN1C(=O)c1ccn(-c2ccc3ccc(-c4cccnc4)cn23)n1 (stereo unspecified) | > 50 µM (inactive)
82 | O=C(CC(C(=O)Nc1ccc2c(c1)OCO2)C(=O)c1ccccc1)Nc1ccc(Cl)cc1F (stereo unspecified) | 9.87 µM
83 | Cc1cc(-c2nnc(SCC(=O)Nc3ccc(Br)c(C)c3)n2N)n[nH]1 | 15.6 µM
84 | COc1ccc(NC(=O)c2ccc(-n3nnnc3SC)cc2)cc1Cl | 31.1 µM
85 | COc1cc(OC)c(NC(=O)Cn2c(=O)n(Cc3ccccc3Cl)c(=O)c3cc(OC)c(OC)cc32)cc1Cl | 3.28 µM
86 | Cc1nc(-c2noc(-c3ccncc3)n2)cn1CC(=O)N1CCN(c2ccc(F)cc2)CC1 | 37.6 µM
87 | Cc1cccc(NC(=O)c2ccn(COc3ccc(F)cc3F)n2)c1C | > 50 µM (inactive)
88 | CCCCCn1c(Sc2ccc(C)cc2)nc2c1c(=O)[nH]c(=O)n2C | 14.5 µM
89 | COc1ccc(CCNC(=O)c2cc3ccccc3s2)cc1OC | 2.07 µM
90 | Cc1cc(/C=C2/C(=N)N3C(c4ccccc4)=CSC3=NC2=O)c(C)n1-c1ccc2ccccc2c1 | > 50 µM (inactive)
91 | Cc1c(OCC(=O)Nc2nc3ccccc3[nH]2)ccc2c3c(c(=O)oc12)CCC3 | 0.541 µM
92 | CC(=O)Nc1ccc(-n2cnc(C(=O)NC(C)c3ccccc3)c2)nc1 (stereo unspecified) | 20.5 µM
93 | O=S(=O)(c1ccc2c(c1)OCCO2)N(Cc1ccccc1)Cc1nnc(-c2ccccc2)o1 | > 50 µM (inactive)
94 | O=C(CNc1ccc(F)c(Cl)c1)Nc1ccc2c(c1)OCCO2 | 15.6 µM
95 | CCCC[C@@H](C)/C=C(C)/C=C(\C)C(=O)NC1=C[C@](O)(/C=C/C=C/C=C/C(=O)NC2=C(O)CCC2=O)[C@@H]2O[C@@H]2C1=O | 2.56 µM
96 | Fc1ccccc1Cc1nc(-c2ccc3nncn3c2)no1 | 9.69 µM
97 | O=C(NCc1nc(-c2ccc3c(c2)[nH]c(=O)n3C2CCCC2)no1)c1ccccc1 | > 50 µM (inactive)
98 | COc1ccc(NC(=O)CSc2oc(-c3ccc(C)cc3)nc2S(=O)(=O)c2ccc(Br)cc2)c(OC)c1 | > 50 µM (inactive)
99 | CCn1cc(-c2nc(-c3ccccn3)no2)c(=O)c2cc(F)ccc21 | 26.5 µM
100 | O=C1CC(C(=O)Nc2ccc(F)cc2)n2nc(SCc3ccccc3)nc2N1 (stereo unspecified) | 29.3 µM
101 | COc1ccc(C)cc1NC(=O)CSc1nc(C)nc2c1oc1ccccc12 | 22 µM
